From patent publication US20110190249A1, “THERAPEUTIC METHODS AND USES OF SAPOGENINS AND THEIR DERIVATIVES” (PHYTOPHARM PLC, priority 2002, published 2011)

How the values were obtained:
[1] = system: rat primary cortical neurones; experiment: Prevention of glutamate-induced neurodegeneration (LDH release), pre-treatment; assay type: cell-based; details: 30 nM, given 24 h before glutamate; LDH 24 h after glutamate; control = 100
Method: The objective of this study was to examine the effects of sarsasapogenin, episarsasapogenin cathylate, episarsasapogenin, epismilagenin and smilagenin on the survival of rat primary cortical neurones exposed to glutamate, which is known to induce neuro degeneration.
Rat cortical neurones were cultured for 10 days; at day 10 the medium was changed to a serum-free defined medium. On day 12, 24 hours before glutamate exposure, cultures were washed and medium was replaced with fresh medium containing positive control (β-oestradiol), test compounds (sarsasapogenin, episarsasapogenin cathylate, episarsasapogenin, epismilagenin and smilagenin) or vehicle control (DMSO, 0.25%) or diosgenin as negative control.
On day 13, cultures were exposed to glutamate. After the incubation period, the cultures were washed with and placed in fresh medium, supplemented with relevant compounds or vehicle to evaluate their protective effects, 24 h after glutamate exposure.
Neuronal cell survival was evaluated by measuring lactate dehydrogenase (LDH) activity released in the media 24 h after test compound treatment or glutamate+test compound exposure, using the CytoTox 96 non-radioactive kit and quantitated by measuring wavelength absorbance at 450 nm.

dopamine (D) 2 receptor = experiment: Dopamine D2 receptor density in aged rats; assay type: in vivo, rat; details: aged rats treated 3 months; aged untreated 153.8±40.5, young 200.6±50.9
Method: (§1) Aged Sprague-Dawley rats aged were divided into different groups, one control and groups treated for 2-3 months with either sarsasapogenin, episarsasapogenin cathylate or smilagenin (18 mg kg^−1 day^−1, n=10). A control group (n=14) of untreated young rats was also included in the study. The daily dose of drug was mixed in a minimum amount of food and was administered every morning separately to each rat.
(§2) By contrast, smilagenin and sarsasapogenin treatment in aged rats for 3 months restored the D1 and D2 receptor density (smilagenin 177±10.9; 217±45.7 fmol/mg protein; sarsasapogenin 172.0±44.0; 206.4±60.5 respectively).

[2] = system: rat primary spinal motor neurones; experiment: Glutamate-induced neurodegeneration in spinal motor neurones (LDH); assay type: cell-based; details: control 100 ± 1
[3] = system: rat primary cortical neurones; experiment: Neurite outgrowth in rat primary cortical neurones; assay type: cell-based; details: for Number of neurones displaying neurites, Mean ± s.e.m (%): control 47 ± 2; for Neurite length measured using optical micrometry, Mean ± s.e.m (%): control 100 ± 4
From the text: Neurodegenerative disorders are characterised by a progressive loss of neurones and degradation of neuronal processes (neurites). Agents that induce neurite outgrowth may promote the formation of new connections between neurones and ameliorate the symptoms of neurodegenerative conditions (Katzman et al, Faseb J., 5, 278-286, 1991).

BDNF = BDNF levels in aged rats; assay type: in vivo, rat; details: aged rats treated 3 months; aged untreated 1.205±0.219, young 1.647±0.277
Method: as §1

caspase-3 = experiment: Glutamate induced caspase 3 activity in cortical neurones; assay type: cell-based, rat; details: 300 nM for 6 h after glutamate 100 microM 10 min; glutamate alone 131
Method: The objective of this study was to examine the anti-apoptotic effect of smilagenin on the caspase-3 activity, a marker of apoptosis, in rat primary cortical cultures exposed to glutamate
Rat cortical neurones were cultured for 6 days. At day 6, glutamate (100 microM, 10 min) was added. Then the cultures were washed and medium was replaced with fresh medium containing smilagenin or vehicle control (DMSO, 0.25%) for 6 h. After 6 h treatment, apoptosis was evaluated by measuring caspase 3, activity. Caspase 3 activity was detected by the cleavage of p-nitroaniline from a colorimetric caspase-3 substrate, acetyl-Asp-Glu-Val-Asp p-nitroanilide. […] has a high absorbance at 405 nm. Relative caspase-3 activity was measured as optical density. In addition the relative activity of caspase-3 was standardised to protein concentration of the sample, which was also measured as an optical density (Du et al, J Neurochem., 69, 1382-1388, 1997; Sawada et al, Faseb J., 14, 1202-1214, 2000).

dopamine (D) 1 receptor = experiment: Dopamine D1 receptor density in aged rats; assay type: in vivo, rat; details: aged rats treated 3 months; aged untreated 129.2±36.8, young 157.5±33.2
Method: as §1, §2

[4] = system: rat mesencephalic dopaminergic neurones; experiment: Pre-treatment of dopaminergic neurones before MPP+ exposure (neuronal survival); assay type: cell-based; details: pre-treatment 30 nM; MPP+ 2 μM; MPP+ alone 55 ± 3
From the text: Smilagenin and sarsasapogenin prevent the neurodegeneration caused by exposure to the neurotoxin, 1-methyl-4-phenylpyridinium (MPP^+) in rat mesencephalic dopaminergic neurones; a model of Parkinson's disease in vitro.
Glial cell line-derived neurotrophic factor (GDNF) and brain-derived neurotrophic factor (BDNF), molecules that are involved in neuronal growth, were used as positive controls.

aged Sprague-Dawley rats = experiment: Y-maze learning and memory test in aged rats; assay type: in vivo, rat; details: 18 mg kg−1 day−1 oral in food, 3 months
Method: as §1
A Y-maze apparatus was used for the learning and memory test. On the floor of each arm of the Y-maze is an array of copper rods to which electric current is applied whenever needed, with adjustable voltage. Each arm is 45 cm long and has a 15 W lamp at the end, which is turned on when needed. After 3 months drug administration, each rat was trained for 7 consecutive days, as follows. For each training session, the rat was put into one arm of the Y-maze, after two minutes rest, an electrical current was applied to the copper rods and the lamp of the clockwise arm was illuminated to indicate the non-stimulation area. If the rat went into that arm, one correct response was recorded, otherwise, one wrong response was recorded: This stimulation-response test was repeated 20 times each day, with a pause of 5 sec between each two consecutive tests. The number of correct responses following the twenty tests on the seventh day was used to express learning ability, (the higher the number the better the learning ability). The rats were then left resting for 30 days and the procedure was repeated once more. The number of correct responses of the 20 tests after the 30 day rest period was used to represent the memory ability

[5] = system: muscarinic acetylcholine receptor; experiment: Brain muscarinic acetylcholine receptor density in aged rats (dual-site competitive ligand binding); assay type: in vivo, rat; details: 18 mg kg−1 day−1 oral, 2-3 months
Method: as §1
Muscarinic acetylcholine receptor density in the brain was measured. Tissue was prepared as follows: brains were removed quickly after decapitation, frozen in dry ice, and transferred to a freezer. The brains were homogenised and the pellet was finally suspended in buffer.
The dual-site competitive ligand binding assay was used to measure muscarinic acetylcholine receptor density.

C[C@@H]1CC[C@@]2(OC1)O[C@H]1C[C@H]3[C@@H]4CC[C@@H]5C[C@@H](O)CC[C@]5(C)[C@H]4CC[C@]3(C)[C@H]1[C@@H]2C [smilagenin]
Prevention of glutamate-induced neurodegeneration, Mean ± s.e.m (%) [1]: 91 ± 4%
D2 receptor density (dopamine (D) 2 receptor): 217±45.7 fmol/mg protein
Glutamate-induced neurodegeneration in spinal motor neurones, Mean ± s.e.m (%) ([2]; 0.03 nM for 48 h after glutamate 4 microM 10 min): 128 ± 4%
Glutamate-induced neurodegeneration in spinal motor neurones, Mean ± s.e.m (%) ([2]; 3 nM for 48 h after glutamate 4 microM 10 min): 154 ± 1%
Glutamate-induced neurodegeneration in spinal motor neurones, Mean ± s.e.m (%) ([2]; 300 nM for 48 h after glutamate 4 microM 10 min): 144 ± 4%
Number of neurones displaying neurites, Mean ± s.e.m (%) ([3]; 0.3 pM): 63 ± 2%
Neurite length measured using optical micrometry, Mean ± s.e.m (%) ([3]; 0.3 pM): 159 ± 5%
Number of neurones displaying neurites, Mean ± s.e.m (%) ([3]; 3 pM): 63 ± 2%
Neurite length measured using optical micrometry, Mean ± s.e.m (%) ([3]; 3 pM): 190 ± 8%
Number of neurones displaying neurites, Mean ± s.e.m (%) ([3]; 30 pM): 66 ± 2%
Neurite length measured using optical micrometry, Mean ± s.e.m (%) ([3]; 30 pM): 204 ± 6%
BDNF levels (BDNF): 1.342±0.07 ng/g tissue
Caspase activity (% of control) (caspase-3): 105 % of control
D1 receptor density (dopamine (D) 1 receptor): 177±10.9 fmol/mg protein
Dopaminergic neurones after MPP+ exposure (survival), Mean ± s.e.m (%) [4]: 98 ± 4%
Learning and memory ability (Y-maze) (aged Sprague-Dawley rats): restored the learning and memory ability
Muscarinic acetylcholine receptor density in brain [5]: significantly restored
